Assay results reported in patent publication US8486984B2, “Aminomethyl substituted bicyclic aromatic compounds suitable for treating disorders that respond to modulation of the dopamine D3 receptor” (Abbott GmbH & Co., KG, priority 2004, dated 2013).
Structures can show the parent of a compound that is named as a salt.

Legend:
[1] = target: T1, human dopamine D2L receptors (long isoform) (Homo sapiens, UniProt P14416); test: Dopamine D2L receptor binding, [125I] iodospiperone displacement; conditions: membranes from HEK-293 cells stably expressing receptor; 0.01 nM [125I] iodospiperone; 25° C., 60 minutes; read-out: Ki(D2)*
T1 construct: expressed in transfected cells; membranes)
T1 sequence (P14416 whole entry, canonical isoform): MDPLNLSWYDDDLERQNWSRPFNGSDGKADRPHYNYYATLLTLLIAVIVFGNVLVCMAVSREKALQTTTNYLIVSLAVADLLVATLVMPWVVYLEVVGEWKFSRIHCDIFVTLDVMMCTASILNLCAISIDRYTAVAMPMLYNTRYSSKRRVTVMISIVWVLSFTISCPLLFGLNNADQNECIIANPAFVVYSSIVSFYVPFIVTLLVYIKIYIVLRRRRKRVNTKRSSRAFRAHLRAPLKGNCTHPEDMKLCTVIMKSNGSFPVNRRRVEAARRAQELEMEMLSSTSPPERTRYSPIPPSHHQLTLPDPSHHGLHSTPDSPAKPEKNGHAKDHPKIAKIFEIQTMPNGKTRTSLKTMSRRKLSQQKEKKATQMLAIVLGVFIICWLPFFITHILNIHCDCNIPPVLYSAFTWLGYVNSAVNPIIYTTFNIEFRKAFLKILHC
Description: (§1) The substance to be tested was either dissolved in methanol/Chremophor® (BASF-AG) or in dimethyl sulfoxide and then diluted with water to the desired concentration.
(§2) Each assay mixture was run in triplicate.
The incubation buffer contained 50 mM tris, 120 mM NaCl, 5 mM KCl, 2 mM CaCl2, 2 mM MgCl2 and 0.1% bovine serum albumin. The buffer was adjusted to pH 7.4 with HCl.
(§3) After having been incubated at 25° C. for 60 minutes, the assay mixtures were filtered through a Whatman GF/B glass fiber filter under vacuum using a cell collecting device. The filters were transferred to scintillation viols using a filter transfer system. After 4 ml of Ultima Gold® (Packard) have been added, the samples were shaken for one hour and the radioactivity was then counted in a Beta-Counter (Packard, Tricarb 2000 or 2200CA). The cpm values were converted into dpm using a standard quench series and the program belonging to the instrument.
(§4) The inhibition curves were analyzed by means of iterative nonlinear regression analysis using the Statistical Analysis System (SAS) which is similar to the “LIGAND” program described by Munson and Rodbard.

[2] = target: T2, human dopamine D3 receptors (Homo sapiens, UniProt P35462); test: Dopamine D3 receptor binding, [125I]-iodosulpride displacement; conditions: for Ki: membranes from HEK-293 cells stably expressing receptor, 0.1 nM [125I]-iodosulpride, 25° C., 60 minutes; for Ki(D2)*/Ki(D3)*: selectivity, ratio of receptor binding constants D2/D3
T2 construct: expressed in transfected cells; membranes)
T2 sequence (P35462 whole entry): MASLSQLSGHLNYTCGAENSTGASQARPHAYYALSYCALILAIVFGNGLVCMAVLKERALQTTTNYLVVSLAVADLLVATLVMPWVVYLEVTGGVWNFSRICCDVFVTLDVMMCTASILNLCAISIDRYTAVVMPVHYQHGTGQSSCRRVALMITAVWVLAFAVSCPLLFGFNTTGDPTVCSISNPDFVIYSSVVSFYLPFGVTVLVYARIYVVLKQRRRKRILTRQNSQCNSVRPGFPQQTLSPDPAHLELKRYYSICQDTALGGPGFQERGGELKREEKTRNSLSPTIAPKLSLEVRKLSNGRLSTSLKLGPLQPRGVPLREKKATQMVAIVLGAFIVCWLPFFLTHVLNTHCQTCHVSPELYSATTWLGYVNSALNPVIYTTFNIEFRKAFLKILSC
Description: as §1, §2
The incubation buffer contained 50 mM tris, 120 mM NaCl, 5 mM KCl, 2 mM CaCl2, 2 mM MgCl2 and 0.1% bovine serum albumin, 10 μM quinolone and 0.1% ascorbic acid (prepared fresh daily). The buffer was adjusted to pH 7.4 with HCl.
as §3, §4

| SMILES | Ki [1] [nM] | Ki [2] [nM] | Ki(D2)*/Ki(D3)* [2] |
| --- | --- | --- | --- |
| CCCNCc1cc2cc(NS(=O)(=O)c3ccc(C(C)C)cc3)ccc2[nH]1 [Example 1, 4-Isopropyl-N-(2-propylaminomethyl-1H-indol-5-yl)-benzenesulfonamide] | 225 | 5.8 | 39 |
| CCCNCC1Cc2cc(NS(=O)(=O)c3ccc(C(C)C)cc3)ccc2N1 (stereo not shown) [Example 2, 4-Isopropyl-N-(2-propylaminomethyl-2,3-dihydro-1H-indol-5-yl)-benzenesulfonamide×HCl] | 517 | 9.4 | 55 |
| CCCNCc1cc2cc(NS(=O)(=O)c3ccc(OC(F)(F)F)cc3)ccc2[nH]1 [Example 3, N-(2-Propylaminomethyl-1H-indol-5-yl)-4-trifluoromethoxy-benzenesulfonamide×½ fumaric acid] | 55 | 55 | 23 |
| CCCNCC1Cc2cc(NS(=O)(=O)c3ccc(OC(F)(F)F)cc3)ccc2N1 (stereo not shown) [Example 4, N-(2-Propylaminomethyl-2,3-dihydro-1H-indol-5-yl)-4-trifluoromethoxy-benzenesulfonamide×HCl] | 7640 | 63.4 | 120 |
| CCCNCC1Cc2ccc(NS(=O)(=O)c3ccc(C(C)C)cc3)cc2C1 (stereo not shown) [Example 7, 4-Isopropyl-N-(2-propylaminomethyl-indan-5-yl)-benzenesulfonamide] | 398 | 7.4 | 54 |
| C=CCNCC1Cc2cccc(NS(=O)(=O)c3ccc(C(C)C)cc3)c2C1 (stereo not shown) [Example 9, 4-Isopropyl-N-(2-allylaminomethyl-indan-4-yl)-benzenesulfonamide] | 232 | 4.3 | 54 |

The next lines start with the values.

| Ki [1] [nM] | Ki [2] [nM] | Ki(D2)*/Ki(D3)* [2] | SMILES |
| --- | --- | --- | --- |
| 119 | 1.72 | 69 | CCCNCC1CCCc2cc(NS(=O)(=O)c3ccc(C(C)C)cc3)ccc21 (stereo not shown) [Example 5, 4-Isopropyl-N-(5-propylaminomethyl-5,6,7,8-tetrahydro-naphthalen-2-yl)-benzenesulfonamide×HCl] |
| 58.6 | 1.32 | 45 | CCCNCC1CCc2cc(NS(=O)(=O)c3ccc(C(C)C)cc3)ccc21 (stereo not shown) [Example 10, 4-Isopropyl-N-(1-propylaminomethyl-indan-5-yl)-benzenesulfonamide] |
| 137 | 5.3 | 26 | CCCN1CCC2c3ccc(NS(=O)(=O)c4ccc(C(C)C)cc4)cc3NC2C1 (stereo not drawn) [Example 12, 4-Isopropyl-N-(2-propyl-2,3,4,4a,9,9a-hexahydro-1H-beta-carbolin-7-yl)-benzenesulfonamide] |
| – | 10.1 | 5 | CCCN1CC2CCc3c(cc(Cl)c(NS(=O)(=O)c4ccc(C(C)C)cc4)c3Cl)C2C1.Cl (stereo not shown) [Example 13, N-(6,8-Dichloro-2-propyl-2,3,3a,4,5,9b-hexahydro-1H-benzo[e]isoindol-7-yl)-4-isopropyl-benzenesulfonamide, hydrochloride] |
| – | 0.5 | 28 | CCCN1CC2CCc3cc(NS(=O)(=O)c4ccc(C(C)C)cc4)ccc3C2C1.Cl (stereo not shown) [Example 14, 4-Isopropyl-N-(2-propyl-2,3,3a,4,5,9b-hexahydro-1H-benzo[e]isoindol-7-yl)-benzenesulfonamide, hydrochloride] |
| – | 1.8 | 36 | CCCN1CC2CCc3cc(NS(=O)(=O)c4ccc(C(C)C(F)(F)F)cc4)ccc3C2C1.Cl (stereo not shown) [Example 15, N-(2-Propyl-2,3,3a,4,5,9b-hexahydro-1H-benzo[e]isoindol-7-yl)-4-(2,2,2-trifluoro-1-methylethyl)-benzenesulfonamide, hydrochloride] |
| – | 3.6 | 66 | CCCN1CC2CCc3cc(NS(=O)(=O)c4ccc(OC(F)(F)F)cc4)ccc3C2C1.Cl (stereo not shown) [Example 16, N-(2-Propyl-2,3,3a,4,5,9b-hexahydro-1H-benzo[e]isoindol-7-yl)-4-trifluoromethoxy-benzenesulfonamide hydrochloride] |
| – | 3.3 | 19 | CCCN1CC2CCc3cc(NS(=O)(=O)c4ccc(OC(F)F)cc4)ccc3C2C1.Cl (stereo not shown) [Example 17, 4-Difluoromethoxy-N-(2-propyl-2,3,3a,4,5,9b-hexahydro-1H-benzo[e]isoindol-7-yl)-benzenesulfonamide, hydrochloride] |
